Data on 29 molecules can be found in patent US7592347B2, “Piperazine derivates and their use for the treatment of neurological and psychiatric diseases” (Glaxo Group Limited, priority 2003, dated 2009).

Counter-ions that a name gives are not always drawn.

T1 sequence (Q9Y5N1 whole entry): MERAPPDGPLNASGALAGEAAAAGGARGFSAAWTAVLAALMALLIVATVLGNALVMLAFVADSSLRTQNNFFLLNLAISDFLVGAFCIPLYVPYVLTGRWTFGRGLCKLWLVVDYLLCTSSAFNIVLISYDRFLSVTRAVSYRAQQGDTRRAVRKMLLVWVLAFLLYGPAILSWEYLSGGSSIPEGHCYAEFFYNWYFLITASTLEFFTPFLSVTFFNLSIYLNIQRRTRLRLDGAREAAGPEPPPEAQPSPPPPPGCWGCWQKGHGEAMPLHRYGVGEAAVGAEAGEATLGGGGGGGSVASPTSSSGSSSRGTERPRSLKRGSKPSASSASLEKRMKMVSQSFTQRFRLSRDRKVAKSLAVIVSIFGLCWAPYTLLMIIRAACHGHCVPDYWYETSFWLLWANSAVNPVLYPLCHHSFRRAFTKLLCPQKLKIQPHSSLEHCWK

This experiment has as its target T1, histamine H3 receptor (Homo sapiens, UniProt Q9Y5N1).
T1 construct: expressed in transfected cells; host or cells: CHO K1 cells carrying pSwitch, transfected with pGeneH3 and induced with mifepristone; clone 3H3; membranes
The experiment can be described thus: Histamine H3 functional antagonist assay ([35S]GTPγS SPA, membranes of CHO K1 cells expressing human H3). The format is biochemical. The settings on record: functional antagonism of histamine (0.3 μM) stimulated [35S]GTPγS binding, membranes of CHO K1 cells with human histamine H3. On the procedure: A membrane preparation containing histamine H3 receptors may be prepared in accordance with the following procedures:
Ligated DNA was transformed into competent DH5α E. coli host bacterial cells and plated onto Luria Broth (LB) agar containing Zeocin™ (an antibiotic which allows the selection of cells expressing the sh ble gene which is present on pGene and pSwitch) at 50 μg ml^−1. Colonies containing the re-ligated plasmid were identified by restriction analysis. DNA for transfection into mammalian cells was prepared from 250 ml cultures of the host bacterium containing the pGeneH3 plasmid and isolated using a DNA preparation kit (Qiagen Midi-Prep) as per manufacturers guidelines (Qiagen).
CHO K1 cells previously transfected with the pSwitch regulatory plasmid (InVitrogen) were seeded at 2×10e6 cells per T75 flask in Complete Medium, containing Hams F12 (GIBCOBRL, Life Technologies) medium supplemented with 10% v/v dialysed foetal bovine serum, L-glutamine, and hygromycin (100 μg ml^−1), 24 hours prior to use. Plasmid DNA was transfected into the cells using Lipofectamine plus according to the manufacturers guidelines (InVitrogen). 48 hours post transfection cells were placed into complete medium supplemented with 500 μg ml^−1 Zeocin™.
10-14 days post selection 10 nM Mifepristone (InVitrogen), was added to the culture medium to induce the expression of the receptor. […] Approximately 1×10e7 cells were examined for receptor expression by staining with a rabbit polyclonal antibody, 4a, raised against the N-terminal domain of the histamine H3 receptor, incubated on ice for 60 minutes, followed by two washes in sorting medium. […] Following two further washes with Sorting Medium, cells were filtered through a 50 μm Filcon™ (BD Biosciences) and then analysed on a FACS Vantage SE Flow Cytometer fitted with an Automatic Cell Deposition Unit. […] Positively stained cells were sorted as single cells into 96-well plates, containing Complete Medium containing 500 μg ml^−1 Zeocin™ and allowed to expand before reanalysis for receptor expression via antibody and ligand binding studies.
All steps of the protocol are carried out at 4° C. and with pre-cooled reagents. The cell pellet is resuspended in 10 volumes of buffer A2 containing 50 mM N-2-hydroxyethylpiperazine-N′-2-ethanesulfonic acid (HEPES)(pH 7.40) supplemented with 10e−4M leupeptin (acetyl-leucyl-leucyl-arginal; Sigma L2884), 25 μg/ml bacitracin (Sigma B0125), 1 mM ethylenediamine tetra-acetic acid (EDTA), 1 mM phenylmethylsulfonyl fluoride (PMSF) and 2×10e−6M pepstain A (Sigma). The cells are then homogenised by 2×15 second bursts in a 1 litre glass Waring blender, followed by centrifugation at 500 g for 20 minutes. The supernatant is then spun at 48,000 g.for 30 minutes. The pellet is resuspended in 4 volumes of buffer A2 by vortexing for 5 seconds, followed by homogenisation in a Dounce homogeniser (10-15 strokes). At this point the preparation is aliquoted into polypropylene tubes and stored at −70° C. […]
The plate is then incubated on a shaker at room temperature for 30 minutes followed by centrifugation for 5 minutes at 1500 rpm. The plate is read between 3 and 6 hours after completion of centrifuge run in a Wallac Microbeta counter on a 1 minute normalised tritium count protocol. Data is analysed using a 4-parameter logistic equation. Basal activity used as minimum i.e. histamine not added to well.
(GTPγS is a poorly hydrolysed GTP analogue; its binding reports G protein activation.)
Broadly, the Kb is the affinity of an antagonist, worked out from how it opposes an agonist. High values mean lower antagonist affinity, low ones higher antagonist affinity. Regarding `CC(C)N1CCCN(C(=O)C2CCN(c3ccc(Cl)c(Cl)c3)CC2)CC1` [Example E54, 1-Isopropyl-4-[1-(3,4-dichlorophenyl)-piperidine-4-carbonyl]-[1,4]-diazepane], the Kb is < 3.16 nM.
To `CC(C)N1CCCN(C(=O)C2CCN(c3ccc(OC(F)(F)F)cc3)CC2)CC1` [Example E56, 1-Isopropyl-4-[1-(4-trifluoromethoxyphenyl)-piperidine4-carbonyl]-[1,4]-diazepane] belongs < 3.16 nM; to `CC(C)N1CCCN(C(=O)C2CCN(c3ccc(OC(F)F)cc3)CC2)CC1` [Example E59, 1-Isopropyl-4-[1-(4-difluoromethoxyphenyl)-piperidine-4-carbonyl]-[1,4]-diazepane], < 3.16 nM.
To `CC(C)N1CCCN(C(=O)C2CCN(c3ccc(Oc4ccccc4)cc3)CC2)CC1` [Example E61, 1-Isopropyl-4-[1-(4-phenoxyphenyl)-piperidine-4-carbonyl]-[1,4]-diazepane] belongs < 3.16 nM.
For the molecule `COc1ccc(N2CCC(C(=O)N3CCCN(C(C)C)CC3)CC2)cn1` [Example E62, 1-Isopropyl-4-[1-(6-methoxypyridin-3-yl)-piperidine-4-carbonyl]-[1,4]-diazepane], the antagonist dissociation constant (Kb) is < 3.16 nM.
To `CC(C)N1CCCN(C(=O)C2CCN(c3ccc(C#N)c(F)c3F)CC2)CC1` [Example E63, 1-Isopropyl-4-[1-(4-cyano-2,3-difluorophenyl)-piperidine-4-carbonyl]-[1,4]-diazepane] belongs < 3.16 nM.
Under `CC(C)N1CCCN(C(=O)C2CCN(c3ccc(C#N)cc3Cl)CC2)CC1` [Example E64, 1-Isopropyl-4-[1-(4-cyano-2-chlorophenyl)-piperidine-4-carbonyl]-[1,4]-diazepane] stands < 3.16 nM.
To `N#Cc1ccc(N2CCC(C(=O)N3CCCN(C4CCC4)CC3)CC2)c(Cl)c1` [Example E65, 1-Cyclobutyl-4-[1-(4-cyano-2-chlorophenyl)-piperidine-4-carbonyl]-[1,4]-diazepane] belongs < 3.16 nM; to `N#Cc1ccc(N2CCC(C(=O)N3CCCN(C4CCC4)CC3)CC2)cc1Cl` [Example E66, 1-Cyclobutyl-4-[1-(4-cyano-3-chlorophenyl)-piperidine4-carbonyl]-[1,4]-diazepane], < 3.16 nM; to `N#Cc1ccc(N2CCC(C(=O)N3CCCN(C4CCC4)CC3)CC2)cc1F` [Example E67, 1-Cyclobutyl-4-[1-(4-cyano-3-fluorophenyl)-piperidine4-carbonyl]-[1,4]-diazepane], < 3.16 nM.
As for `N#Cc1ccc(N2CCC(C(=O)N3CCCN(C4CCC4)CC3)CC2)cc1C(F)(F)F` [Example E68, 1-Cyclobutyl-4-[1-(4-cyano-3-trifluoromethylphenyl)-piperidine4-carbonyl]-[1,4]-diazepane], the antagonist dissociation constant (Kb) was < 3.16 nM.
Under `CC(C)N1CCN(C(=O)C2CCN(c3ccc(C#N)cc3)CC2)C[C@@H]1C` [Example E70, (S)-1-Isopropyl-4-[1-(4-cyanophenyl)-piperidine-4-carbonyl]-2-methylpiperazine] stands < 3.16 nM.
Consider `CC(C)N1CCN(C(=O)C2CCN(c3ccc(C#N)nc3)CC2)C[C@@H]1C` [Example E78, (S)-1-Isopropyl-4-[1-(6-cyanopyridin-3-yl)-piperidine-4-carbonyl]-2-methyl piperazine], for which the antagonist equilibrium constant (Kb) was < 3.16 nM.
Under `CC(C)N1CCN(C(=O)C2CCN(c3ccc(C(F)(F)F)nc3)CC2)C[C@@H]1C` [Example E79, (S)-1-Isopropyl-4-[1-(6-trifluoromethylpyridin-3-yl)-piperidine-4-carbonyl]-2-methyl piperazine] stands < 1 nM.
To `CC(C)N1CCN(C(=O)C2CCN(c3ccc(C#N)cn3)CC2)C[C@@H]1C` [Example E86, (S)-1-Isopropyl-4-[1-(5-cyanopyridin-2-yl)-piperidine4-carbonyl]-2-methyl piperazine] belongs < 3.16 nM; to `CC(C)N1CCN(C(=O)C2CCN(c3cnc(C(F)(F)F)cn3)CC2)C[C@@H]1C` [Example E87, (S)-1-Isopropyl-4-[1-(5-trifluoromethyl-pyrazin-2-yl)-piperidine4-carbonyl]-2-methyl piperazine], < 3.16 nM.
To `CC(C)N1CCN(C(=O)C2CCN(c3ccc(C(F)(F)F)nn3)CC2)C[C@@H]1C` [Example E88, (S)-1-Isopropyl-4-[1-(6-trifluoromethyl-pyridazin-3-yl)-piperidine-4-carbonyl]-2-methyl piperazine] belongs < 3.16 nM.
For the molecule `CC(C)N1CCN(C(=O)C2CCN(c3ccc(-c4nnc(-c5ccccc5)o4)cc3)CC2)CC1` [Example E90, 1-Isopropyl-4-{1-[4-(5-phenyl-1,3,4-oxadiazol-2-yl)phenyl]-piperidine-4-carbonyl} piperazine], the Kb is < 3.16 nM.
To `CC(C)N1CCN(C(=O)C2CCN(c3ccc4ncccc4c3)CC2)CC1` [Example E91, 1-Isopropyl-4-[1-(quinolin-6-yl)-piperidine4-carbonyl]piperazine] belongs < 3.16 nM; to `CC(C)N1CCN(C(=O)C2CCN(c3ccc(C(F)(F)F)nc3)CC2)CC1` [Example E96, 1-Isopropyl-4-[1-(6-trifluoromethylpyridin-3-yl)-piperidine-4-carbonyl]-piperazine], < 0.316 nM; to `O=C(C1CCN(c2ccc(C(F)(F)F)nc2)CC1)N1CCN(C2CCC2)CC1` [Example E97, 1-Cyclobutyl-4-[1-(6-trifluoromethylpyridin-3-yl)-piperidine-4-carbonyl]piperazine], < 3.16 nM.
Under `CC(C)N1CCN(C(=O)C2CCN(c3cnc(C(F)(F)F)cn3)CC2)CC1` [Example E102, 1-Isopropyl-4-[1-(5-trifluoromethyl-pyrazin-2-yl)-piperidine4-carbonyl]-piperazine] stands < 3.16 nM; under `CC[C@H](C)N1CCN(C(=O)C2CCN(c3ccc(C#N)cc3)CC2)CC1` [Example E104], < 3.16 nM.
Under `CC(C)N1CCN(C(=O)C2CCN(c3ccc(C(=O)C4CC4)cc3)CC2)CC1` [Example E105, 1-Isopropyl-4-[1-(4-cyclopropylcarbonylphenyl)-piperidine4-carbonyl]-piperazine] stands < 3.16 nM.
As to `Cc1ccc2cc(N3CCC(C(=O)N4CCN(C(C)C)CC4)CC3)ccc2n1` [Example E118, 1-Isopropyl-4-[1-(2-methyl-quinolin-6-yl)-piperidine-4-carbonyl]-piperazine], the antagonist dissociation constant (Kb) is < 3.16 nM.
For the molecule `CC(C)N1CCN(C(=O)C2CCN(c3ccc(C#N)nc3)CC2)CC1` [Example E129, 1-Isopropyl-4-[1-(6-cyano-pyridin-3-yl)-piperidine-4-carbonyl]-piperazine], the antagonist dissociation constant (Kb) was < 3.16 nM.
To `CC(C)N1CCCN(C(=O)C2CCN(c3ccc(C(F)(F)F)nc3)CC2)CC1` [Example E135, 1-Isopropyl-4-[1-(6-trifluoromethylpyridin-3-yl)-pipenidine-4-carbonyl]-[1,4]-diazepane, hydrochloride] belongs < 0.316 nM; to `O=C(C1CCN(c2ccc(C(F)(F)F)nc2)CC1)N1CCCN(C2CCC2)CC1` [Example E136, 1-Cyclobutyl-4-[1-(6-trifluoromethylpyridin-3-yl)-piperidine4-carbonyl]-[1,4]-diazepane], < 3.16 nM.
As for `N#Cc1cc(N2CCC(C(=O)N3CCCN(C4CCC4)CC3)CC2)ccn1` [Example E137, 1-Cyclobutyl-4-[1-(2-cyanopyridin-4-yl)-piperidine-4-carbonyl]-[1,4]-diazepane], the antagonist dissociation constant (Kb) was < 3.16 nM.
